Experimental data taken from patent US4916069A, “Enzyme and process for producing the same” (priority 1986, dated 1990).

Experiments:
Type in all cases: biochemical, Gluconobacter oxydans UV-10
L-sorbose dehydrogenase [1] = target: T1, L-sorbose dehydrogenase (Gluconobacter oxydans, UniProt Q47944); details: 0.1 ml of 1M substrate solution instead of L-sorbose, DCIP, 25° C., pH 7.0
Experimental: (§1) Enzyme assay was performed at 25° C. by measuring the decrease of absorbance at 600 nm of DCIP spectrophotometrically. One unit of enzyme activity was defined as the amount of enzyme which catalyzed the reduction of 1 μmole of DCIP per minute. The extinction coefficient of DCIP at pH 7.0 was taken as 14.5 mM^-1. The basal reaction mixture is shown below. The mixture was prepared just before the assay.
(§2) A cuvette with 1 cm light path contained 0.4 ml of basal mixture, 0.1 ml of 1M L-sorbose, enzyme solution, and water in a final volume of 0.51 ml. A reference cuvette contains all components except the substrate. The reaction was initiated by the addition of the substrate. Enzyme activity was measured as the initial reduction rate of DCIP.
Substrate specificity of the enzyme was determined using the same enzyme assay method as described in the above (1) except that 0.1 ml of each of the various substrate solutions (1M) was used instead of L-sorbose.

L-sorbose dehydrogenase [2] = target: T1, L-sorbose dehydrogenase; experiment: Effect of metal ions on the enzyme activity; details: for Effect of metal ion on the enzyme activity (in words): summary of Table 6
Experimental: as §1, §2
Using the assay procedure described under (1) above, the effect of various metal ions on the enzyme activity was examined. Co^2+ and Fe^3+ were stimulative and Cu^2+ was inhibitory.

L-sorbose dehydrogenase [3] = target: T1, L-sorbose dehydrogenase; experiment: biochemical; details: for Effect of inhibitor on the enzyme activity (in words): summary of Table 7
Experimental: as §1, with “The extinction coefficient of DCIP at pH 7.0 was taken as 14.5 mM^-1.” left out
as §2

L-sorbose dehydrogenase [4] = target: T1, L-sorbose dehydrogenase; experiment: Measurement of the Km value for L-sorbose; details: L-sorbose 0.5 mM to 320 mM
Experimental: as §1, §2
In the procedure described under (2) above, the velocities of oxidising reactions with varying concentrations of L-sorbose from 0.5 mM to 320 mM were measured to determine the Km value for L-sorbose. The maximum reaction velocity was found at the substrate concentration of about 200 mM. Apparent Michaelis constant (Km) was calculated to be 102±10 mM with DCIP as an electron acceptor.

T1 sequence (Q47944 whole entry): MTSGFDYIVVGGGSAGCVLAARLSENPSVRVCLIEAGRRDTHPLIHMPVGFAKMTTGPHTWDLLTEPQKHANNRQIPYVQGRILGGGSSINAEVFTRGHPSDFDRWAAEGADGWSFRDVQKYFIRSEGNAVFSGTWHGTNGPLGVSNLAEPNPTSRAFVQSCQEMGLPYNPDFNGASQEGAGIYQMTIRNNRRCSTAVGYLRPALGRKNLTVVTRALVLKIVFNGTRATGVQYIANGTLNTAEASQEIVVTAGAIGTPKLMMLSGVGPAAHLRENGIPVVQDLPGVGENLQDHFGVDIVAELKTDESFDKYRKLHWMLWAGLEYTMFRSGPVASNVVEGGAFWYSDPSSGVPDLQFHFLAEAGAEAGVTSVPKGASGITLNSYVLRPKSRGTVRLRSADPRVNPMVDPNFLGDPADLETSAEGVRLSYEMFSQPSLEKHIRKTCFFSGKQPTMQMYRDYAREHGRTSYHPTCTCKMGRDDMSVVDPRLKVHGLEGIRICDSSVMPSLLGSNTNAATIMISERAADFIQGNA

O=C([O-])[C@@H](O)[C@H](O)[C@@H](O)[C@H](O)CO.O=C([O-])[C@@H](O)[C@H](O)[C@@H](O)[C@H](O)CO.[Ca+2] [Ca-Idonate]
Relative enzyme activity (%) (L-sorbose dehydrogenase [1]): 0%

[Ca+2].[Cl-].[Cl-] [CaCl2]
Relative activity (%) (L-sorbose dehydrogenase [2]; metal 0.4 mM): 100% | Relative activity (%) (L-sorbose dehydrogenase [2]; metal 0.8 mM): 100%

O.O.O.O.O.O.[Cl-].[Cl-].[Co+2] [CoC1 · 6H2O]
Relative activity (%) (L-sorbose dehydrogenase [2]; metal 0.4 mM): 109.2% | Relative activity (%) (L-sorbose dehydrogenase [2]; metal 0.8 mM): 118.4%

[Co+2] [Co^2+]
Effect of metal ion on the enzyme activity (in words) (L-sorbose dehydrogenase [2]): stimulative

O.O=[N+]([O-])[O-].O=[N+]([O-])[O-].[Cu+2] [Cu(NO3)2 · H2 O]
Relative activity (%) (L-sorbose dehydrogenase [2]; metal 0.3 mM): 2.27%

O.O.[Cl][Cu][Cl] [CuCl2 · 2H2 O]
Relative activity (%) (L-sorbose dehydrogenase [2]; metal 0.4 mM): 0%

O.O.O.O.O.O=S(=O)([O-])[O-].[Cu+2] [CuSO4 · 5H2 O]
Relative activity (%) (L-sorbose dehydrogenase [2]; metal 0.08 mM): 30.9%

O=S(=O)([O-])[O-].[Cu+2] [CuSO4]
Relative activity (%) (L-sorbose dehydrogenase [2]; metal 0.8 mM): 0%

[Cu+2] [Cu^2+]
Effect of metal ion on the enzyme activity (in words) (L-sorbose dehydrogenase [2]): inhibitory

O=C(O)CN(CCN(CC(=O)O)CC(=O)O)CC(=O)O [EDTA]
inhibition at 940 µM (L-sorbose dehydrogenase [3]): 0% | inhibition at 5200 µM (L-sorbose dehydrogenase [3]): 13.3%

[Fe+3] [Fe^3+]
Effect of metal ion on the enzyme activity (in words) (L-sorbose dehydrogenase [2]): stimulative

O.O.O.O.O.O.[Cl-].[Cl-].[Mg+2] [MgCl2 · 6H2 O]
Relative activity (%) (L-sorbose dehydrogenase [2]; metal 0.8 mM): 83.3%

O.O.O.O.O.O.O.O=S(=O)([O-])[O-].[Mg+2] [MgSO4 · 7H2 O]
Relative activity (%) (L-sorbose dehydrogenase [2]; metal 0.4 mM): 100% | Relative activity (%) (L-sorbose dehydrogenase [2]; metal 0.8 mM): 100%

O.O.O.O.[Cl][Mn][Cl] [MnCl2 · 4H2 O]
Relative activity (%) (L-sorbose dehydrogenase [2]; metal 0.4 mM): 100% | Relative activity (%) (L-sorbose dehydrogenase [2]; metal 0.9 mM): 98.3%

O.O=S(=O)([O-])[O-].[Mn+2] [MnSO4 · H2 O]
Relative activity (%) (L-sorbose dehydrogenase [2]; metal 0.4 mM): 100%

O=C(O)CI [Mono-Iodo acetate]
inhibition at 1850 µM (L-sorbose dehydrogenase [3]): 0% | inhibition at 4240 µM (L-sorbose dehydrogenase [3]): 34.6% | inhibition at 9370 µM (L-sorbose dehydrogenase [3]): 68.5% | Effect of inhibitor on the enzyme activity (in words) (L-sorbose dehydrogenase [3]): inhibited the enzyme activity partially

CCN1C(=O)C=CC1=O [N-Ethyl-maleimide]
inhibition at 1850 µM (L-sorbose dehydrogenase [3]): 0% | inhibition at 4240 µM (L-sorbose dehydrogenase [3]): 0%

O.O.O.O.O.O.O.O=[As]([O-])([O-])O.[Na+].[Na+] [Na2 HAs · O4 · 7H2 O]
Inhibition (%) (L-sorbose dehydrogenase [3]; inhibitor 1.85 mM): 0% | Inhibition (%) (L-sorbose dehydrogenase [3]; inhibitor 4.24 mM): 0%

O.O.[Na+].[Na+].[O]=[Mo](=[O])([O-])[O-] [Na2 MoO4 · 2H2 O]
Relative activity (%) (L-sorbose dehydrogenase [2]; metal 0.3 mM): 86.1% | Relative activity (%) (L-sorbose dehydrogenase [2]; metal 1.06 mM): 69.6%

O.O.O.O.O.O.O=S(=O)([O-])[O-].[Ni+2] [NiSO4 · 6H2 O]
Relative activity (%) (L-sorbose dehydrogenase [2]; metal 0.4 mM): 100% | Relative activity (%) (L-sorbose dehydrogenase [2]; metal 0.9 mM): 100%

O=C(O)c1cc[c]([Hg][Cl])cc1 [PCMB, p-chloro-mercuri-benzoate]
Inhibition (%) (L-sorbose dehydrogenase [3]; inhibitor 0.02 mM): 0% | Inhibition (%) (L-sorbose dehydrogenase [3]; inhibitor 0.04 mM): 0% | Inhibition (%) (L-sorbose dehydrogenase [3]; inhibitor 0.17 mM): 0%

C=C[C@H]1C[N@@]2CC[C@H]1C[C@H]2[C@H](O)c1ccnc2ccc(OC)cc12 [Quinine]
inhibition at 1850 µM (L-sorbose dehydrogenase [3]): 0% | inhibition at 4240 µM (L-sorbose dehydrogenase [3]): 30.5% | Effect of inhibitor on the enzyme activity (in words) (L-sorbose dehydrogenase [3]): inhibited the enzyme activity partially

[N-]=[N+]=[N-] [Sodium Azide]
inhibition at 1850 µM (L-sorbose dehydrogenase [3]): 0% | inhibition at 4240 µM (L-sorbose dehydrogenase [3]): 0%

[F-].[Na+] [Sodium Fluoride]
Inhibition (%) (L-sorbose dehydrogenase [3]; inhibitor 1.85 mM): 10.3% | Inhibition (%) (L-sorbose dehydrogenase [3]; inhibitor 4.24 mM): 10.3% | Inhibition (%) (L-sorbose dehydrogenase [3]; inhibitor 9.37 mM): 22.1% | Effect of inhibitor on the enzyme activity (in words) (L-sorbose dehydrogenase [3]): inhibited the enzyme activity partially

O=C(O)CF [Sodium Fluoro acetate]
inhibition at 1850 µM (L-sorbose dehydrogenase [3]): 0% | inhibition at 4240 µM (L-sorbose dehydrogenase [3]): 8.6% | inhibition at 9370 µM (L-sorbose dehydrogenase [3]): 26.5% | Effect of inhibitor on the enzyme activity (in words) (L-sorbose dehydrogenase [3]): inhibited the enzyme activity partially

O=C(CO)[C@@H](O)[C@H](O)[C@@H](O)CO [Sorbose, L-sorbose]
Substrate concentration of maximum reaction velocity (L-sorbose dehydrogenase [4]): about 200 mM

O.O.O.O.O.O.O.O=S(=O)([O-])[O-].[Zn+2] [ZnSO4 · 7H2 O]
Relative activity (%) (L-sorbose dehydrogenase [2]; metal 0.4 mM): 100% | Relative activity (%) (L-sorbose dehydrogenase [2]; metal 0.9 mM): 100%

Fe(SO4)3 .multidot. xH2 O
Relative activity (%) (L-sorbose dehydrogenase [2]; metal 0.4 mM): 121.3% | Relative activity (%) (L-sorbose dehydrogenase [2]; metal 0.9 mM): 106.4%

TiCl
Relative activity (%) (L-sorbose dehydrogenase [2]; metal 0.4 mM): 100% | Relative activity (%) (L-sorbose dehydrogenase [2]; metal 0.8 mM): 100% | Relative activity (%) (L-sorbose dehydrogenase [2]; metal 1.8 mM): 100%
